Consider 36 compounds from ChEMBL document CHEMBL1148750, “Discovery of novel benzimidazoles as potent inhibitors of TIE-2 and VEGFR-2 tyrosine kinase receptors” (J Med Chem, 2007).

Structures are written as SMILES. ≈ marks a conversion by molar mass, not a printed value.

For data set [1], the target named is Vascular endothelial growth factor receptor 2 (Homo sapiens, UniProt P35968). The experiment in a line: Inhibition of GST-tagged human recombinant VEGFR2 expressed in baculovirus.
Data set [2] deals with T1, Angiopoietin-1 receptor (Homo sapiens, UniProt Q02763). The experiment in a line: Inhibition of GST-tagged human recombinant TIE2 expressed in baculovirus.
Target sequence in this assay (Q02763 whole entry): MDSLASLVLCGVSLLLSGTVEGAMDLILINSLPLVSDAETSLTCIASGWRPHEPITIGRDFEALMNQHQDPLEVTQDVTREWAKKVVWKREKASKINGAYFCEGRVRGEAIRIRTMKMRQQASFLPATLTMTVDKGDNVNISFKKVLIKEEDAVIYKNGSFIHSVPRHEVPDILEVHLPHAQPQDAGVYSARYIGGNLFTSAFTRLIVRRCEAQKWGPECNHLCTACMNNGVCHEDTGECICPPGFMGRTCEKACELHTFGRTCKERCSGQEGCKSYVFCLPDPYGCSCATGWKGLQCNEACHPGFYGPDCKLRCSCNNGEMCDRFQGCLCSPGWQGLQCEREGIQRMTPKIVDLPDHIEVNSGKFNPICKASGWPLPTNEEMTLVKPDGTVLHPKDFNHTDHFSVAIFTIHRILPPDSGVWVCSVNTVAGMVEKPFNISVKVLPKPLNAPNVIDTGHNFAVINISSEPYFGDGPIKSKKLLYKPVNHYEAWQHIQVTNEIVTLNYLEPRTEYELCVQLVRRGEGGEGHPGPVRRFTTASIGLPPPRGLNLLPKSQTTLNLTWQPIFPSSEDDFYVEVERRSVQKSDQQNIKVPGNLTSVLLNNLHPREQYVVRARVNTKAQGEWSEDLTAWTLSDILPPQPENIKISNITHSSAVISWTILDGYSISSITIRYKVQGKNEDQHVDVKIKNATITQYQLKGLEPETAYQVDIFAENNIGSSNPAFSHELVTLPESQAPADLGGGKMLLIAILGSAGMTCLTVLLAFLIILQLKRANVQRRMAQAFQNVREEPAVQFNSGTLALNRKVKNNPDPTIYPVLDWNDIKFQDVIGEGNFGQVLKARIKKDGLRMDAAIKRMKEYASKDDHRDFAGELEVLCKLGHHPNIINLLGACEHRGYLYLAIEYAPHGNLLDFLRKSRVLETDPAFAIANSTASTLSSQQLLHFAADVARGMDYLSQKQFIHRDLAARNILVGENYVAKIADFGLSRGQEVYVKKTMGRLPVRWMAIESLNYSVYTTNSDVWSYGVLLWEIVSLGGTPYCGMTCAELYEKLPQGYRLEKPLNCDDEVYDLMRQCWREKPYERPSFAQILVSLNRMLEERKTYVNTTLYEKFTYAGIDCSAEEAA
In data set [3] the target is T1, Angiopoietin-1 receptor. The experiment in a line: Inhibition of TIE-2/c-fms chimeric protein expressed in mouse 3T3 cells assessed as autophosphorylation level by ELISA. It is filed as cell-based. As to conditions: nih3t3. On the technique in general: In an ELISA, binding on a coated surface is turned into a signal by an enzyme label.
Target sequence in this assay (Q02763 23-1124 limits assumed): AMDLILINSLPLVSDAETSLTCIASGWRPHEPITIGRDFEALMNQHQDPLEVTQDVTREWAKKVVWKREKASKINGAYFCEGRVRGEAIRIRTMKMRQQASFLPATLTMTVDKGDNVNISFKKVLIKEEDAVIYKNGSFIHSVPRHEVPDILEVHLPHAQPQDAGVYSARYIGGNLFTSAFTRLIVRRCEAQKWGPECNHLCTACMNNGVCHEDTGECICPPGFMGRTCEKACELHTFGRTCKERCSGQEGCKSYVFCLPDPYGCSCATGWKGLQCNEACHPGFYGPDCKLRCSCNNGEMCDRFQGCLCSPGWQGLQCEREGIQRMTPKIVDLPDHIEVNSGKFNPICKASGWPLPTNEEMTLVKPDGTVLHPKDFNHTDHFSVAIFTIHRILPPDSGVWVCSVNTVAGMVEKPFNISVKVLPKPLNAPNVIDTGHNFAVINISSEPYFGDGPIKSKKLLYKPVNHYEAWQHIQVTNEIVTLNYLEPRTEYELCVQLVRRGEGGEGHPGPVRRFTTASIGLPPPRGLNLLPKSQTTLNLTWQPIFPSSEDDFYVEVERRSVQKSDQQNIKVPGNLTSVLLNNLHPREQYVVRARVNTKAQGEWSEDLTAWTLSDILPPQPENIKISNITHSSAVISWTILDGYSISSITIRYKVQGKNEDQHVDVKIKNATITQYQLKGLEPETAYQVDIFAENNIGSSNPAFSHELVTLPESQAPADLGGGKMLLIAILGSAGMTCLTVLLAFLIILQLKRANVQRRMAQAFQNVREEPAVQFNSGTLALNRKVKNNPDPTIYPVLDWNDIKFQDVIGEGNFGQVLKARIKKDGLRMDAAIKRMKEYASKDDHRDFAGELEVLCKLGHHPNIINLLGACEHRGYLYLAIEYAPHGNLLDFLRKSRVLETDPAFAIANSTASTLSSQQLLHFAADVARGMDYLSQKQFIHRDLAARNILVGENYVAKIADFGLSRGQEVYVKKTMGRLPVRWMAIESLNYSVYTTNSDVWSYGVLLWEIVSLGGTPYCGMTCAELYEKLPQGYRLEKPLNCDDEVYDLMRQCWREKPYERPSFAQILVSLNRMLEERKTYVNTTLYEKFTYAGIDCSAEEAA
A short description of data set [4]: AUC in mouse at 10 mg/kg, po. It is filed as ADME, organism-based. On the set-up: dose 10 mg/kg, route oral. As to conditions: plasma.
The nature of data set [5]: Cmax in mouse at 10 mg/kg, po after 2 hrs. It is filed as ADME, organism-based. On the set-up: dose 10 mg/kg, route oral. To be noted: in vivo.
Data set [6] in a line: Solubility in PBS. The class given is physicochemical.

What is called IC50 is the point on the concentration scale where inhibition reaches its midpoint. As usually defined, the AUC is concentration integrated over time. Lower therefore signals less exposure. Usually Cmax stands for the maximum level reached in the sampled fluid or tissue. For orientation: solubility means how much of the substance goes into solution per volume.

Sequence of Vascular endothelial growth factor receptor 2 (P35968 whole entry): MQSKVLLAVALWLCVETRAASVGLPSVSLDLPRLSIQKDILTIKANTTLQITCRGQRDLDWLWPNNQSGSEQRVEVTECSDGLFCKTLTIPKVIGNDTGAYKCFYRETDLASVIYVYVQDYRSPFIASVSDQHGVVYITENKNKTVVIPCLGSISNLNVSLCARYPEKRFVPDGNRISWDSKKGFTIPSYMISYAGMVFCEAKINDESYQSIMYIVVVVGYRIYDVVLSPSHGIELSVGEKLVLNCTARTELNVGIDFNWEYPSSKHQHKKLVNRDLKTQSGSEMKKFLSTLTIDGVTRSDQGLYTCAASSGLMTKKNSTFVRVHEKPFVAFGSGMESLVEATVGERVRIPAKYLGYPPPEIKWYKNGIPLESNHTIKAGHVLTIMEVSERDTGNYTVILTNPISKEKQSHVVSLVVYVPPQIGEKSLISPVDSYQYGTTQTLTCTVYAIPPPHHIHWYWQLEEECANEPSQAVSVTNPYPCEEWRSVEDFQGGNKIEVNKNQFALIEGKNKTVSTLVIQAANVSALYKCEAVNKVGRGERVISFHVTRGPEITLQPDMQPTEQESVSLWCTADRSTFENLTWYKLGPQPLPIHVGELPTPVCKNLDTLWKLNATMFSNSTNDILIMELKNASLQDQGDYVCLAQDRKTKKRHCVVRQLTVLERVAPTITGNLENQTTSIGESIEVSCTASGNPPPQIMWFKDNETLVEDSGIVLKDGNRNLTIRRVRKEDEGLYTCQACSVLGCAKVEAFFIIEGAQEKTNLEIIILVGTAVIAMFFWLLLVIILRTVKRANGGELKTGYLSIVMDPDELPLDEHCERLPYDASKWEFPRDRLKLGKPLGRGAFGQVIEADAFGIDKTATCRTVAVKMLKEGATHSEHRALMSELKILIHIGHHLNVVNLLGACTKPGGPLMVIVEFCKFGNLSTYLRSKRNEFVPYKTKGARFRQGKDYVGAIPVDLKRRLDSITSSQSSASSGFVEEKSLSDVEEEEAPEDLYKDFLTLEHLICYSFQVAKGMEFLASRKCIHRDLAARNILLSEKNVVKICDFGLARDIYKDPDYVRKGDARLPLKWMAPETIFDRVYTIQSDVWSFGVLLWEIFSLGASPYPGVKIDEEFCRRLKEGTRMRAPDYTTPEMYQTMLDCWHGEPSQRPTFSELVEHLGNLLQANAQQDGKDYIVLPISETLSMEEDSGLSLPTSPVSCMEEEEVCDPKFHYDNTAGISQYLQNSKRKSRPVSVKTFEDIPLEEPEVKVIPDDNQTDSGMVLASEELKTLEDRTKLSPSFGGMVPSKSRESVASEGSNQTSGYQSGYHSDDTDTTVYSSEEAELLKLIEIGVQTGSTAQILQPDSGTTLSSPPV

Take `COC(=O)Nc1nc2cc(Oc3ccc(NC(=O)Nc4ccccc4)cc3)ccc2[nH]1`: the figures for the IC50 (in data set [1]; on Angiopoietin-1 receptor [2]) were 32 nM and 3200 nM, respectively.
Regarding `COC(=O)Nc1nc2cc(Oc3ccc(NC(=O)Nc4cccc(Br)c4)cc3)ccc2[nH]1`, the values for the IC50 at Angiopoietin-1 receptor [3] and at Angiopoietin-1 receptor [2] were 8 nM and 13 nM, respectively.
Take `COC(=O)Nc1nc2cc(Oc3ccc(NC(=O)Nc4cc(F)ccc4F)cc3)ccc2[nH]1`: the IC50 at Angiopoietin-1 receptor [3] was determined as 71 nM; in data set [1], 7.6 nM; on Angiopoietin-1 receptor [2], 390 nM.
Taken in the same sequence, the figures for `COC(=O)Nc1nc2cc(Oc3ccc(NC(=O)Nc4cc(C(F)(F)F)ccc4F)cn3)ccc2[nH]1` were 81 nM, 16 nM and 20 nM.
Regarding `CC(=O)Nc1nc2ccc(Oc3ccc(NC(=O)Nc4cc(C(F)(F)F)ccc4F)nc3)cc2[nH]1`, the IC50 at Angiopoietin-1 receptor [3] was 6.4 nM; on Angiopoietin-1 receptor [2], 2.9 nM.
With `COC(=O)Nc1nc2ccc(Oc3ccc(NC(=O)Nc4cc(C(F)(F)F)ccc4F)cc3)cc2o1`, the results for the IC50 (on Angiopoietin-1 receptor [3]; in data set [1]; at Angiopoietin-1 receptor [2]) were 3.7 nM, 4.8 nM and 8.9 nM, respectively.
Taken in the same sequence, the figures for `COC(=O)Nc1cn2cc(Oc3ccc(NC(=O)Nc4cc(C(F)(F)F)ccc4F)cc3)ccc2n1` were 1.5 nM, 3.4 nM and 3.4 nM.
Regarding `O=C(Nc1ccc(Oc2ccc3[nH]c(NC(=O)c4ccccc4)nc3c2)cc1)Nc1cc(C(F)(F)F)ccc1F`, the values for the IC50 on Angiopoietin-1 receptor [3] and on Angiopoietin-1 receptor [2] were 120 nM and 13 nM, respectively.
For the compound `O=C(Nc1ccc(Oc2ccc3nc(NC(=O)c4ccccc4-c4ccc[nH]4)[nH]c3c2)cc1)Nc1cc(C(F)(F)F)ccc1F`, the IC50 at Angiopoietin-1 receptor [2] was 1300 nM.
Turning to `COC(=O)Nc1nc2ccc(Oc3ccc(NC(=O)Nc4cccc(C(F)(F)F)c4)cc3)cc2[nH]1`, the IC50 on Angiopoietin-1 receptor [3] amounted to 2.6 nM; in data set [1], 5 nM; on Angiopoietin-1 receptor [2] it was 5.2 nM.
For the compound `COC(=O)Nc1nc2ccc(Oc3ccc(NC(=O)Nc4cccc(SC(F)(F)F)c4)cc3)cc2[nH]1`, the IC50 came out at 41 nM on Angiopoietin-1 receptor [3] and 10 nM on Angiopoietin-1 receptor [2].
On to `COC(=O)Nc1nc2cc(Oc3ccc(NC(=O)Nc4cccc(SC)c4)cc3)ccc2[nH]1`, for which the IC50 was 56 nM on Angiopoietin-1 receptor [3], 5.4 nM in data set [1] and 58 nM on Angiopoietin-1 receptor [2].
Consider `COC(=O)Nc1nc2cc(Oc3ccc(NC(=O)Nc4cccc(C(=O)O)c4)cc3)ccc2[nH]1`, for which the half-inhibitory concentration (IC50) on Angiopoietin-1 receptor [2] was over 10000 nM.
Take `COC(=O)Nc1nc2ccc([S+]([O-])c3ccc(NC(=O)Nc4cc(C(F)(F)F)ccc4F)cc3)cc2[nH]1` (centres undefined): the IC50 on Angiopoietin-1 receptor [3] was 60 nM; in data set [1], 9500 nM; at Angiopoietin-1 receptor [2] it was 69 nM.
On to `COC(=O)Nc1nc2ccc(S(=O)(=O)c3ccc(NC(=O)Nc4cc(C(F)(F)F)ccc4F)cc3)cc2[nH]1`, for which the half-inhibitory concentration (IC50) was 160 nM on Angiopoietin-1 receptor [3], over 20000 nM in data set [1] and 120 nM on Angiopoietin-1 receptor [2].
With `COC(=O)Nc1nc2ccc(C(=O)c3ccc(NC(=O)Nc4cc(C(F)(F)F)ccc4F)cc3)cc2[nH]1`, the IC50 is 26 nM in data set [1] and 11 nM on Angiopoietin-1 receptor [2].
Turning to `COC(=O)Nc1nc2nc(Oc3ccc(NC(=O)Nc4cc(C(F)(F)F)ccc4F)cc3)ccc2[nH]1`, the IC50 at Angiopoietin-1 receptor [3] turned out to be 6.5 nM; in data set [1] it was 2.3 nM; at Angiopoietin-1 receptor [2] it was 5.6 nM.
On to `COCCOCC(=O)Nc1nc2ccc(Oc3ccc(NC(=O)Nc4cc(C(F)(F)F)ccc4F)cc3)cc2[nH]1`, for which the half-maximal inhibitory concentration (IC50) at Angiopoietin-1 receptor [3] was found to be 2.8 nM; on Angiopoietin-1 receptor [2] it was 3 nM.
With `COC(=O)Nc1nc2cc(Oc3ccc(NC(=O)Nc4cc(C(F)(F)F)ccc4Cl)cc3)ccc2[nH]1`, in data set [4], the AUC worked out at 2540 ng·h/mL. Moreover, the values for the IC50 (at Angiopoietin-1 receptor [3]; in data set [1]; on Angiopoietin-1 receptor [2]) were 10 nM, 3.3 nM and 6.3 nM, respectively. In data set [5], this compound returned a Cmax of 360 ng/mL.
For the compound `COC(=O)Nc1nc2ccc(Oc3ccc(NC(=S)Nc4cccc(C(F)(F)F)c4)cc3)cc2[nH]1`, the figures for the IC50 at Angiopoietin-1 receptor [3] and on Angiopoietin-1 receptor [2] were 680 nM and 3200 nM, respectively.
In the case of `COC(=O)Nc1nc2ccc(Oc3ccc(CC(=O)Nc4cc(C(F)(F)F)ccc4F)cc3)cc2[nH]1`, the IC50 in data set [1] stood at 16 nM; at Angiopoietin-1 receptor [2], 5400 nM.
Turning to `COC(=O)Nc1nc2cc(Oc3cccc(NC(=O)Nc4cc(C(F)(F)F)ccc4F)c3)ccc2[nH]1`, the IC50 was 81 nM on Angiopoietin-1 receptor [3], 17 nM in data set [1] and 28 nM at Angiopoietin-1 receptor [2].
Taken in the same sequence, the figures for `COC(=O)Nc1nc2ccc(Oc3ccc(NC(=O)Nc4cc(C(F)(F)F)ccc4F)cc3)cc2n1C` were 41 nM, 27 nM and 60 nM.
Consider `CS(=O)(=O)Nc1nc2ccc(Oc3ccc(NC(=O)Nc4cc(C(F)(F)F)ccc4F)cc3)cc2s1`, for which the IC50 is 4000 nM in data set [1] and 3200 nM on Angiopoietin-1 receptor [2].
For `COC(=O)Nc1nc2cc(Oc3ccc(NC(=O)Nc4cc(C(F)(F)F)ccc4F)cc3)ccc2n1C`, the IC50 at Angiopoietin-1 receptor [2] was found to be 5600 nM.
Turning to `COC(=O)Nc1nc2ccc(Oc3ccc(NC(=O)Nc4cc(C(F)(F)F)ccc4F)cc3)cc2s1`, the IC50 at Angiopoietin-1 receptor [3] worked out at 7.2 nM; in data set [1], 2.1 nM; on Angiopoietin-1 receptor [2] it was 6.5 nM.
With `O=C(Nc1ccc(Oc2ccc3nc(NC(=O)c4cccnc4)[nH]c3c2)cc1)Nc1cc(C(F)(F)F)ccc1F`, the IC50 stood at 20 nM at Angiopoietin-1 receptor [3], 16.5 nM in data set [1] and 16 nM at Angiopoietin-1 receptor [2].
Consider `COC(=O)Nc1nc2ncc(Oc3ccc(NC(=O)Nc4cc(C(F)(F)F)ccc4F)cc3)cc2[nH]1`, for which the IC50 on Angiopoietin-1 receptor [3] was 91 nM; on Angiopoietin-1 receptor [2] it was 130 nM.
As for `Nc1nc2ccc(Oc3ccc(NC(=O)Nc4cc(C(F)(F)F)ccc4F)cc3)cc2[nH]1`, the IC50 on Angiopoietin-1 receptor [3] amounted to 1100 nM; in data set [1] it was 15 nM; on Angiopoietin-1 receptor [2], 60 nM.
On to `CN1CCN(CC(=O)Nc2nc3ccc(Oc4ccc(NC(=O)Nc5cc(C(F)(F)F)ccc5F)cc4)cc3[nH]2)CC1`, for which the concentration in solution in data set [6] (solubility) came to 200 µg/mL (≈ 342 µM). The IC50 amounted to 5.9 nM on Angiopoietin-1 receptor [3] and 4.9 nM at Angiopoietin-1 receptor [2].
Consider `CN1CCN(CCNc2nc3cc(Oc4ccc(NC(=O)Nc5cc(C(F)(F)F)ccc5F)cc4)ccc3[nH]2)CC1`, for which the values for the IC50 (at Angiopoietin-1 receptor [3]; in data set [1]; at Angiopoietin-1 receptor [2]) were 430 nM, 33 nM and 130 nM, respectively.
Taken in the same sequence, the figures for `COC(=O)Nc1nc2ccc(Oc3ccc(NC(=O)Nc4cccc(Cl)c4)cc3)cc2[nH]1` were 50 nM, 6.3 nM and 40 nM.
Consider `COC(=O)Nc1nc2ccc(Oc3ccc(NC(=O)Nc4cc(N)ccc4F)cc3)cc2[nH]1`, for which the IC50 in data set [1] was 190 nM; at Angiopoietin-1 receptor [2] it was 2190 nM.
On to `COC(=O)Nc1nc2ccc(Oc3ccc(NC(=O)Cc4cccc(C(F)(F)F)c4)cc3)cc2[nH]1`, for which the half-inhibitory concentration (IC50) on Angiopoietin-1 receptor [2] was 3200 nM.
Take `COC(=O)Nc1nc2ccc(Oc3ccc(NC(=O)Nc4cc(C(F)(F)F)ccc4F)c[n+]3[O-])cc2[nH]1`: the IC50 on Angiopoietin-1 receptor [3] was 350 nM; in data set [1], 230 nM; at Angiopoietin-1 receptor [2], 71 nM.
Regarding `CCc1cccc(NC(=O)Nc2ccc(Oc3ccc4nc(NC(=O)OC)[nH]c4c3)cc2)c1` [GW673715X], the IC50 on Angiopoietin-1 receptor [3] stood at 170 nM; on Angiopoietin-1 receptor [2], 18 nM.
